Laboratory results as given in patent US20250057832A1, “USE OF A CLASS OF 1,4-DIHYDRO-NAPHTHYRIDINE DERIVATIVES IN TREATMENT OF TUMORS” (NEURODAWN PHARMACEUTICAL CO., LTD., priority 2021, published 2025).

Legend:
T98G cells [1] = experiment: Vacuolation induction in T98G cells (Example 1); type: cell-based, human; details: for Vacuolation rate (%): 6 hours, mean±SD; for Induction of vacuolation in T98 cells: FIG. 1 and Table 1
Description: T98G cells were stably passaged twice. When the cell density reached more than 85%, the cells were digested with 0.05% trypsin-EDTA for 3 minutes, resuspended with the culture medium, and plated in a 12-well plate at a certain density, with each well system being 1 mL. The cells were cultured for 24 hours, and added with the compound solution prepared above to each well according to the grouping, so that the concentrations of the compounds in the culture system were respectively 5 μM, 10 μM, 20 μM, 40 μM, and 60 μM. An equal volume of DMSO was added as a control well.
After 6 hours of drug treatment, the plates were observed under a microscope with a 20× objective lens, and five fields of view were randomly selected for each well to take photos and record. If in the observed field of view, bright vacuoles with clear border appeared in the cell, and at least one of the following conditions was met: 1) a cell contained at least 1 vacuole with a diameter greater than 3 μm; 2) a cell contained 3 or more vacuoles with a diameter within the range of 0.5-3 μm, the cell was considered to be methuosis-positive cells.
Among them, CELL positive: the number of methuosis-positive cells; CELL normal: the number of cells with normal morphology

T98G cells [2] = experiment: Cell proliferation inhibition assay, T98G, CellCounting-Lite 2.0 (Example 1); type: cell-based, human; details: for IC50: Homo sapiens, T98G, 72 hours of drug treatment
Description: T98G cells were stably passaged twice. When the cell density reached above 85%, the cells were digested with 0.05% trypsin-EDTA for 3 minutes, resuspended, plated in a 96-well plate at the corresponding density, and cultured for 24 hours. The cells were treated with drugs at final concentrations of the culture system of 0.41 μM, 1.23 μM, 3.7 μM, 11.1 μM, 33.3 μM, and 100 μM, respectively. After 72 hours of drug treatment, cell viability was determined using CellCounting-Lite™ 2.0 kit. The plate was added with reagents at 100 µL/well according to the CellCounting-Lite™ 2.0 kit instructions, and shaken for 10 minutes. The luminescence value (LUM) as read on a multi-function plate reader, and the relative viability of the cells was calculated.
Relative viability of tumor cells V (%)=(LUM-LUMbackground)/(LUMnormal control−LUMbackground)×100%. LUMbackground was the background reading of the complete culture medium well added with the detection reagent. The half inhibitory concentration (IC50) was calculated using GraphPad Prism 8.0.1 statistical software.

[3] = test system: U87MG-Luc glioblastoma cell in situ transplantation tumor; experiment: S2 combined with TMZ in U87MG-Luc glioblastoma in situ transplantation tumor model in nude mice (Example 5); details: TMZ 3 mg/kg
Description: Before the transplantation, the U87MG-Luc cells were digested with 0.05%-trypsin-EDTA, resuspended with pre-cooled PBS to 4×10^7 cells/mL, and transferred to ice for later use. The nude mice were anesthetized with isoflurane gas, and then fixed on a stereotaxic machine in a prone position. The scalp of the nude mouse was disinfected with iodophor, and incised sagittally with a scalpel. The incision was cleaned with iodophor. The skull was exposed, and drilled with a skull drill extending 1.0 mm in front of the bregma and deviating the right side 2.0 mm. 5 μL of cell suspension (2×10^5 cells) was manually injected with a 10 μL flat-head microsyringe, with inserting the needle to a depth of 3.5 mm, withdrawing the needle 0.5 mm, and injecting for about 10 minutes. […]
On days 7, 14, and 21 after the transplantation, 200 μL of 15 mg/mL D-luciferin potassium salt solution, which was filtered and sterilized through a 0.22 μm filter, was injected intraperitoneally. […] Luorescence intensity was analyzed using Living Image software to obtain fluorescence intensity [p/s], which reflected the size of tumor tissue in the brain of experimental animals.
The survival conditions of experimental animals were monitored, and the animals' death dates were recorded timely.
Quantitative data are expressed as mean±standard error. […]

[4] = test system: human glioma cell line T98G; details: single drug, maximum drug concentration of 20 M, 6 hours
Description: T98G cells were stably passaged twice. […] The cells were cultured for 24 hours, and added with the compound solution prepared above to each well according to the grouping, such that the compound concentrations in the culture system were 0.1 M, 1 M, 5 μM, and 20 M, respectively. An equal volume of DMSO was added as a control well.
If bright vacuoles with clear border appeared in the observed field of view, and at least one of the following conditions was met: 1) a cell contained at least one vacuole with a diameter greater than 3 μm; 2) a cell contained 3 or more vacuoles with a diameter within the range of 0.5-3 μm; the cell was considered as a methuosis-positive cell.

| SMILES | Vacuolation rate (%) (T98G cells [1]; 5 μM) | Vacuolation rate (%) (T98G cells [1]; 10 μM) | Vacuolation rate (%) (T98G cells [1]; 20 μM) | Induction of vacuolation in T98 cells (T98G cells [1]) | IC50 (T98G cells [2]) [µM] | Rank of vacuolation-inducing activity among the derivatives (T98G cells [1]) | Vacuolation rate (%) (T98G cells [1]; 40 μM) | Proliferation inhibitory activity on T98G (in words) (T98G cells [2]; 72 hours) | Median survival period ([3]; vehicle 30) [days] | Overall survival period ([3]; vehicle 33) [days] | Induction of vacuolated cell phenotype [4] |
| --- | --- | --- | --- | --- | --- | --- | --- | --- | --- | --- | --- |
| CCOC(=O)C1=C(C)Nc2nc3c(c(N)c2[C@@H]1c1ccccc1Cl)CC(C)(C)CC3 [(+)-S2] | 1.3 ± 1.6 | 10.0 ± 4.2 | 69.3 ± 6.9 | can induce vacuolation | 5.3 |  |  |  |  |  |  |
| CCOC(=O)C1=C(C)Nc2nc3c(c(N)c2[C@H]1c1ccccc1Cl)CC(C)(C)CC3 [(−)-S2] | 1.2 ± 1.7 | 21.9 ± 9.0 | 96.47 ± 2.4 | can induce vacuolation | 9.8 |  |  |  |  |  |  |
| CCOC(=O)C1=C(C)Nc2nc3c(c(N)c2C1c1ccccc1)CCCC3 (stereo not drawn) [Compound S1] | 0.0 | 0.3 ± 0.6 | 2.23 ± 0.5 | can induce vacuolation | 47.8 | weakest vacuolation-inducing activity | 10.0 ± 5.6 | weak |  |  |  |
| C=CCOC(=O)C1=C(C)Nc2nc3c(c(N)c2C1c1cccc(F)c1)CC(C)(C)CC3 (stereo not drawn) [Compound S3] | 1.1 ± 1.5 | 5.34 ± 1.2 | 9.04 ± 3.8 | can induce vacuolation | 7 |  | 57.4 ± 13.9 |  |  |  |  |
| C#CCOC(=O)C1=C(C)Nc2nc3c(c(N)c2C1c1cccc(F)c1)CC(C)(C)CC3 (stereo not drawn) [Compound S4] | 0.6 ± 1.4 | 5.0 ± 1.3 | 10.43 ± 1.0 | can induce vacuolation | 12.7 |  | 76.9 ± 12.1 |  |  |  |  |
| COCCOC(=O)C1=C(C)Nc2nc3c(c(N)c2C1c1ccccc1Cl)CC(C)(C)CC3 (stereo not drawn) [Compound S5] | 1.4 ± 1.4 | 10.7 ± 0.90 | 35.1 ± 1.3 | can induce vacuolation | 4.5 |  |  |  |  |  |  |
| CC1=C(C(=O)OC(C)C)C(c2cccc(F)c2)c2c(nc3c(c2N)CC(C)(C)CC3)N1 (stereo not drawn) [Compound S6] | 0.00 | 10.5 ± 1.6 | 15.3 ± 1.3 | can induce vacuolation | 20.5 |  | 52.3 ± 2.5 |  |  |  |  |
| Cn1nnc2c(C(N)=O)ncn2c1=O [TMZ, Temozolomide] |  |  |  |  |  |  |  |  | 33.5 | 35 |  |
| COc1ccc([C@@H]2Sc3ccccc3N(CCN(C)C)C(=O)[C@@H]2OC(C)=O)cc1 [diltiazem] |  |  |  |  |  |  |  |  |  |  | None of calcium channel inhibitors nifedipine, verapamil, diltiazem, and flunarizine with a maximum drug concentration of 20 M could induce a vacuolated cell phenotype |
| Fc1ccc(C(c2ccc(F)cc2)N2CCN(C/C=C/c3ccccc3)CC2)cc1 [flunarizine] |  |  |  |  |  |  |  |  |  |  | None of calcium channel inhibitors nifedipine, verapamil, diltiazem, and flunarizine with a maximum drug concentration of 20 M could induce a vacuolated cell phenotype |
